Key:
Format in all cases: cell-based
L858R/T790M/C797S EGFR = target: T1, L858R/T790M/C797S EGFR (Homo sapiens, UniProt P00533, C797S/L858R/T790M); assay: EGFR degradation HTRF assay in H1975-clone #25 (LTC) cells; settings: 16h treatment
T1 construct: expressed in transfected cells; host or cells: H1975 clone #25 (lentiviral over-expression, endogenous EGFR knocked out by sgRNA)
Method in brief: (§1)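 Cells carrying only lentiviral mutant EGFR, since endogenous alleles were removed by CRISPR, received compounds on day 2 for 16 h. Final concentrations ran from 10 uM down in 5-fold steps over 8 doses. After lysis, EGFR levels were quantified by HTRF and DC50 derived by curve fitting.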

Del19/T790M/C797S EGFR = assay: EGFR degradation HTRF assay in H1975-clone #28 (DTC) cells; settings: H1975 # 28 DTC (Del19/T790M/C797S), 16h treatment
Method in brief: as §1

Del19/C797S EGFR = assay: EGFR degradation HTRF assay in H1975-clone #23 (DC) cells; settings: H1975 #23 DC (Del19/C797S), 16h treatment
Description: (§2) H1975-clone #28(Del19/T790M/C797S, or abbr: DTC), H1975-clone #23(Del19/C797S, or abbr: DC), H1975-clone #25(L858R/T790M/C797S, or abbr: LTC) and H1975-clone #8 (L858R/C797S, or abbr: LC). EGFR-Del19:T790M/C797S, EGFR-Del19/C797S, EGFR-L858R/T790M/C797S and EGFR-L858R/C797S were stably expressed in H1975 cell lines by lentivirus-mediated over-expression, respectively. The EGFR over-expressed cells then underwent knockout, in which the EGFR targeting sgRNA was designed to only target the endogenous EGFR copies and preserve the exogenous EGFR copies. Followed by the knockout, the edited H1975 cells were seeded in 96 well plates at the concentration of […], cultured for about 2 weeks to allow single clones formation. The formed clones were screened by DNA sequencing and whole exon sequencing analysis for the desired edition. H1975-clone #28, H1975-clone #23, H1975-clone #25 and H1975-clone #8 were finally confirmed as homozygous Del19/T790M/C797S EGFR, Dell9/C797S EGFR, L858R/T790M/C797S EGFR and L858R/C797S EGFR clones, respectively.
(§3) H1975-#25, H1975-#28, H1975-#23 and H1975-#8 cells are treated with compounds diluted in 0.2% DMSO cell culture medium on day 2, incubate for 16h, 37° C., 5% CO2. the final concentration of compounds in all assay is start with 10 uM, 5-fold dilution, total 8 doses were included.
(§4) After 16h treatment, add HTRF lysis buffer to each well; seal the plate and incubate 1 hour at room temperature on a plate shaker; Once the cells are lysed, 16 μL of cell lysate are transferred to a PE 384-well HTRF detection plate; 4 μL of pre-mixed HTRF antibodies are added to each well; Cover the plate with a plate sealer, spin 1000 rpm for 1 min, Incubate overnight at room temperature; Read on BMG PheraStar with HTRF protocol (337 nm-665 nm-620 nm).
(§5) The IC50 (DC50) value of a compound can be obtained by fitting the following equation
(§6) Y=Bottom+(TOP−Bottom)/(1+((IC50/X)^hillslope))
(§7) Wherein, X and Y are known values, and IC50, Hillslope, Top and Bottom are the parameters obtained by fitting with software. Y is the inhibition percentage (calculated from the equation), X is the concentration of the compound: IC50 is the concentration of the compound when the 50% inhibition is reached. The smaller the IC50 value is, the stronger the inhibitory ability of the compound is. Vice versa, the higher the IC50 value is, the weaker the ability the inhibitory ability of the compound is: Hillslope represents the slope of the fitted curve, generally around 1*; Bottom represents the minimum value of the curve obtained by data fitting, which is generally 0%±20%; Top represents the maximum value of the curve obtained by data fitting, which is generally 100%±20%. The experimental data were fitted by calculating and analyzing with Dotmatics data analysis software.

L858R/C797S EGFR = target: T2, L858R/C797S EGFR (Homo sapiens, UniProt P00533, C797S/L858R); assay: EGFR degradation HTRF assay in H1975-clone #8 (LC) cells; settings: H1975 #8 LC (L858R/C797S), 16h treatment
T2 construct: expressed in transfected cells; host or cells: H1975 clone #8 (lentiviral over-expression, endogenous EGFR knocked out by sgRNA)
Description: as §2, §3, §4, §5, §6, §7

[1] = maximum percentage of degradation

T1 sequence (P00533 25-1210 T790M/C797S/L858R): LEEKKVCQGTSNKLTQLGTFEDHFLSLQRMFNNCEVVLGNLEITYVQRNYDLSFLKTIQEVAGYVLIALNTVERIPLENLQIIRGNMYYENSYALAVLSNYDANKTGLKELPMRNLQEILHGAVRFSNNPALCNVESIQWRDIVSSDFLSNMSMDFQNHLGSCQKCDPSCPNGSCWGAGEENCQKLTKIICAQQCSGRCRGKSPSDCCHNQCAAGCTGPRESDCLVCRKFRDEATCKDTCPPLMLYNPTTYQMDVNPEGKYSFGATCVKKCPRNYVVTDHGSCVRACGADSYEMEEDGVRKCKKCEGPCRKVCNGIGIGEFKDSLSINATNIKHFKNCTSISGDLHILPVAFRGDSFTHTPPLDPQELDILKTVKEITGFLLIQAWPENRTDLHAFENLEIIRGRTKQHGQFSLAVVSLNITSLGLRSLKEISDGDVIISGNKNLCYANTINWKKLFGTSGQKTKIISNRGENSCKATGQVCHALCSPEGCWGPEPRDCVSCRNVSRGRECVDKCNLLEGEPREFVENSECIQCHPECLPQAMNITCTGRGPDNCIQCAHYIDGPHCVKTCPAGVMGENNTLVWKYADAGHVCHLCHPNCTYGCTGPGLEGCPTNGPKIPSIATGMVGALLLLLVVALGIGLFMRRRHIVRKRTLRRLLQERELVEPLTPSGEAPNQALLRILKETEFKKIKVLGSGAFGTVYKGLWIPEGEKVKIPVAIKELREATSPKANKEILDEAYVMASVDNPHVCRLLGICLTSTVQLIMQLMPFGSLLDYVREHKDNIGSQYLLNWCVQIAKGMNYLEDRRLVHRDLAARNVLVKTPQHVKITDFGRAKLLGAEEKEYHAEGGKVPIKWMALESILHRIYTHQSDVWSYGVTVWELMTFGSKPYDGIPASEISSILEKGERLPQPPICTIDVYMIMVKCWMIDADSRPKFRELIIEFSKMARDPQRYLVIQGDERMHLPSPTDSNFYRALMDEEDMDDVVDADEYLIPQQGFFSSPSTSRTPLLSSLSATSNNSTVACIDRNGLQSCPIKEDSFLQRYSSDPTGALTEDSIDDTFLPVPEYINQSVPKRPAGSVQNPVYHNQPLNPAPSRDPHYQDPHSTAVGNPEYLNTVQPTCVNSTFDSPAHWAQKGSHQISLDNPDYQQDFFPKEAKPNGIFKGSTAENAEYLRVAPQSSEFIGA
T2 sequence (P00533 25-1210 C797S/L858R): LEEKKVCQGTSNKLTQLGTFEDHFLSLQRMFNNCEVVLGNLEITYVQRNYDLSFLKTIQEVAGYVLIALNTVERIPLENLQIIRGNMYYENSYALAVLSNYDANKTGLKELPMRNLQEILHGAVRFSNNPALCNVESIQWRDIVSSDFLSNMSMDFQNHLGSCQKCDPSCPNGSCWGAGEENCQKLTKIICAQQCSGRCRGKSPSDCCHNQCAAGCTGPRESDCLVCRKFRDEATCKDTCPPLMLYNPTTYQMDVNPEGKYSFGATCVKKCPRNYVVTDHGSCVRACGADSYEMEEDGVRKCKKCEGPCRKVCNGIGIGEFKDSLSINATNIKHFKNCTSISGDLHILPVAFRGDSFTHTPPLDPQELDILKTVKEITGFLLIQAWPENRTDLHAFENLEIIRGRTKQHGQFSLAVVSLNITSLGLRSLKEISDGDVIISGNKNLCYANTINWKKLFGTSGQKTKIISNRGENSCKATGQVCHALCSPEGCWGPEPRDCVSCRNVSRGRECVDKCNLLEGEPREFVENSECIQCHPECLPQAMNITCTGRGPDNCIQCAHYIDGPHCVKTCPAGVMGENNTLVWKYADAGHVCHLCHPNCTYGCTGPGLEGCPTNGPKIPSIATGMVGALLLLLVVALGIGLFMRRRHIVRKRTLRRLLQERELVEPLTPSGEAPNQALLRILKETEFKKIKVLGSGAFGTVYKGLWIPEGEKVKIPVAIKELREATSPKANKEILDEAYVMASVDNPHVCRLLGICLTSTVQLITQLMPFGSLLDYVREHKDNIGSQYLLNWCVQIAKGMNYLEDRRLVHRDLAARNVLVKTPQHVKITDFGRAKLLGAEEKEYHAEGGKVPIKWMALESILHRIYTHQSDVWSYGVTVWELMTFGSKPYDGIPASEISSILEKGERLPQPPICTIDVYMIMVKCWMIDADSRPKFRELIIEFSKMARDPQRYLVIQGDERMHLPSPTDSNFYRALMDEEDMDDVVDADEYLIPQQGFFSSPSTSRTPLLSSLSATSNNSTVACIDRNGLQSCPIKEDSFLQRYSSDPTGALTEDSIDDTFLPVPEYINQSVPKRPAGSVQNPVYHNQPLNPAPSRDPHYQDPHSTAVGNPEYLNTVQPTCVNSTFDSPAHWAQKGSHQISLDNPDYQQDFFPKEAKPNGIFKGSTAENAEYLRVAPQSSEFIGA

DC50 (L858R/T790M/C797S EGFR; H1975 # 25-LTC (L858R/T790M/C797S), HTRF): 0.8 nM
Dmax (L858R/T790M/C797S EGFR; NCI-H1975, H1975 # 25-LTC (L858R/T790M/C797S), maximum percentage of degradation): 90.1%
DC50 (Del19/T790M/C797S EGFR; HTRF): 1.7 nM
DC50 (Del19/C797S EGFR; HTRF): 1 nM
DC50 (L858R/C797S EGFR; HTRF): 3.2 nM
Dmax (L858R/C797S EGFR; NCI-H1975, maximum percentage of degradation): 64.6%
SMILES: Cc1cc2cc(n1)-c1cnn(C)c1OCCC[C@@H](C)CN1/C(=N/C2=O)Nc2ccc(CN3CCC4(CC3)CCN(C(=O)[C@@H]3CCN(c5cc(F)c([C@H]6CCC(=O)NC6=O)c(F)c5)C3)CC4)cc21 [Example 9, (R)-3-(2,6-difluoro-4-((R)-3-(9-(((R,E)-1^1,2^6,7-trimethyl-3-oxo-5^2,5^3-dihydro-1^1H,5^1H-11-oxa-4-aza-5(2,1)-benzo[d]imidazola-2(2,4)-pyridina-1(4,5)-pyrazolacycloundecaphane-5^6-yl)methyl)-3,9-diazaspiro[5.5]undecane-3-carbonyl)pyrrolidin-1-yl)phenyl)piperidine-2,6-dione]
Dmax (%) (Del19/T790M/C797S EGFR; [1]): 76.4%
Dmax (%) (Del19/C797S EGFR; [1]): 82.6%

From US20240342292A1, “Compounds for the Degradation of EGFR Kinase” (BeiGene Switzerland GmbH, priority 2021, published 2024)
